Data as given in PMC7125024 (ChemMedChem, 2020).
Structures can show the parent of a compound that is named as a salt. Where two headings read alike, the source gives them in different places.

Experiments:
[1] = target: human recombinant LSD1/CoREST enzymatic complex (Homo sapiens, UniProt O60341); test: LSD1 enzyme inhibition assay; format: biochemical
[2] = test system: NB4 APL cells; test: cells; conditions: Homo sapiens, 48 h, read-out: IC50 NB4 (antiproliferative activity)
[3] = test system: MV4–11 AML cells; test: cells; conditions: Homo sapiens, MV4-11, 48 h, read-out: IC50 MV4–11 (antiproliferative activity)
[4] = test system: MV4–11 AML cells; conditions: read-out: IC50 MV4–11 (antiproliferative activity), 48 h
[5] = test system: NB4 APL cells; conditions: read-out: IC50 NB4 (antiproliferative activity), 48 h
[6] = target: T1, human MAO A (Homo sapiens, UniProt P21397); test: Anti-MAO assay; format: biochemical; conditions: for % inhibition at 100 μM MAO A: NI = no inhibition; for inhibition at 100 µM: read-out: % inhibition at 100 μM MAO A
T1 sequence (P21397 1-527): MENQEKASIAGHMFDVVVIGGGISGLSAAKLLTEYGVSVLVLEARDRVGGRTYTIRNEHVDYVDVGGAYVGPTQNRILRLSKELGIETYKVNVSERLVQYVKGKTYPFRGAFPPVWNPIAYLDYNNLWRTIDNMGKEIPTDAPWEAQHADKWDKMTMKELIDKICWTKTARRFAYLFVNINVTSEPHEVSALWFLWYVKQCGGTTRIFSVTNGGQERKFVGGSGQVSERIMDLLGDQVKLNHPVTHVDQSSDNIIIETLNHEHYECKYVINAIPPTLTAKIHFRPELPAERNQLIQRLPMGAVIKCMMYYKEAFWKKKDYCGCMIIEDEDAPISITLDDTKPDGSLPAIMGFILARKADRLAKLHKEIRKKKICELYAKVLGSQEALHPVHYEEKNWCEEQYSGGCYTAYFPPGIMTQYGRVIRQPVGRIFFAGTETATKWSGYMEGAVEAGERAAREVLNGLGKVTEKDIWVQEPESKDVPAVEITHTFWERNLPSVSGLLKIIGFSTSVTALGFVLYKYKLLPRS

[7] = target: T2, human MAO B (Homo sapiens, UniProt P27338); test: Anti-MAO assay; format: biochemical; conditions: read-out: % inhibition at 100 μM MAO B
T2 sequence (P27338 1-520): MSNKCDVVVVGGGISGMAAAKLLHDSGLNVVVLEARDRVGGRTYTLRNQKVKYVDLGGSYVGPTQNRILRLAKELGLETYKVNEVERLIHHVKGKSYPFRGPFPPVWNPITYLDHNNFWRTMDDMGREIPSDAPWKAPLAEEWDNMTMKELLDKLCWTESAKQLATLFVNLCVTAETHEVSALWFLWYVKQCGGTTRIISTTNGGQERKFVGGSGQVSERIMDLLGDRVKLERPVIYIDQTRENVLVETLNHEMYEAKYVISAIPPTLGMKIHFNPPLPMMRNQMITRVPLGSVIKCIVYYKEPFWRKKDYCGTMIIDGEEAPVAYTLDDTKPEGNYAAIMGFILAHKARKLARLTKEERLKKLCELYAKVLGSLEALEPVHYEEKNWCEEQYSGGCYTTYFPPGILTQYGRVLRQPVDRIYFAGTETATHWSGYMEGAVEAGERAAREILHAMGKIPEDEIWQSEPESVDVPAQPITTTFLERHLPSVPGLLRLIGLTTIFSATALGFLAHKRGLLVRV

[8] = Microsomal stability in liver microsomes; format: in vitro ADME; conditions: human, pH 7.4
[9] = Microsomal stability in liver microsomes; format: in vitro ADME; conditions: mouse, pH 7.4
[10] = target: T2, human MAO B; conditions: added for comparison, ref [13b], [19]; cited from earlier work
[11] = read-out: LSD1, IC50, LSD1/CoREST, 15 min preincubation, NI = no inhibition

| SMILES | IC50 [1] [nM] | IC50 [2] [µM] | IC50 [3] [µM] | IC50 [1, 11] [nM] | other results |
| --- | --- | --- | --- | --- | --- |
| NC1CC1c1ccc(NC(=O)c2cc(NC(=O)c3ccccc3)ccc2OCC(=O)NCc2ccccc2)cc1 (centres unmarked) [3n, N-(4-(2-aminocyclopropyl)phenyl)-5-benzamido-2-(2-(benzylamino)-2-oxoethoxy)benzamide] | 1700 ± 50 | 3.8 ± 0.8 | 3.3 ± 0.6 | – | – |
| NC1(c2ccccc2)CC1 [4e, 1-Phenylcyclopropan-1-amine hydrochloride] | – | – | – | > 100000 | – |
| NC1CC1c1ccc(NC(=O)c2ccc(Oc3ccccc3)c(NC(=O)OCc3ccccc3)c2)cc1 (centres unmarked) [3h, Benzyl (5-((4-(2-aminocyclopropyl)phenyl)carbamoyl)-2-phenoxyphenyl)carbamate hydrochloride] | 143 ± 28 | 5.4 ± 0.6 | 3.3 ± 0.3 | – | – |
| NC1(c2ccc(NC(=O)C(Cc3ccccc3)NC(=O)OCc3ccccc3)cc2)CC1 (centres unmarked) [4f, Benzyl (1-((4-(1-aminocyclopropyl)-phenyl)-amino)-1-oxo-3-phenylpropan-2-yl)-carbamate hydrochloride] | – | – | – | > 100000 | – |
| NC1CC1c1ccc(NC(=O)c2ccc(Sc3ccccc3)c(NC(=O)OCc3ccccc3)c2)cc1 (centres unmarked) [3i, Benzyl (5-((4-(2-aminocyclopropyl)phenyl)carbamoyl)-2-(phenylthio)phenyl)carbamate hydrochloride] | 73 ± 11 | 23.2 ± 3.8 | 21.4 ± 3.3 | – | – |
| Cl.NC1CC1c1ccc(NC(=O)c2ccc(Br)cc2NC(=O)OCc2ccccc2)cc1 (centres unmarked) [3k, Benzyl (2-((4-(2-aminocyclopropyl)phenyl)carbamoyl)-5-bromophenyl)carbamate hydrochloridrate] | – | – | – | 159 ± 34 | IC50 [4]: 6.2 ± 0.7 µM; IC50 [5]: 9.3 ± 1 µM; % inhibition at 100 μM MAO A [6]: 94% |
| NC1CC1c1ccc(NC(=O)c2ccc(-c3ccccc3)cc2NC(=O)OCc2ccccc2)cc1 (centres unmarked) [3l, Benzyl (4-((4-(2-aminocyclopropyl)phenyl)carbamoyl)-[1,1’-biphenyl]-3-yl)carbamate hydrochloride] | 135 ± 29 | 7.6 ± 0.8 | 8.1 ± 1 | – | – |
| NC1CC1c1ccc(NC(=O)OCc2ccccc2)cc1 (centres unmarked) [1b, benzyl [4-(2-aminocyclopropyl)phenyl]carbamate] | – | 25 ± 3.2 | 22.4 ± 3.8 | – | inhibition at 100 µM [6]: 96%; inhibition at 100 µM [7]: 37% |
| CNC1CC1c1ccccc1 (centres unmarked) [4a, N-methyl-TCP] | – | – | – | 10800 ± 1100 | LSD1/CoREST potency relative to TCP (fold less effective) [1]: same potency of TCP |
| NC1CC1c1ccc(NC(=O)c2ccc(NC(=O)OCc3ccccc3)cc2)cc1 (centres unmarked) [3a, Benzyl (4-((4-(2-aminocyclopropyl)phenyl)carbamoyl)phenyl)carbamate hydrochloride] | 90 ± 12 | 0.6 ± 0.02 | 0.4 ± 0.01 | – | microsomal CLint at 1 μM [8]: 6.7 ± 1.1 µL/min/mg; inhibition at 100 µM [6]: 37%; microsomal CLint at 1 μM [9]: 7.1 ± 2.2 µL/min/mg; inhibition at 100 µM [7]: 8% |
| NC(=O)C1(c2ccccc2)CC1 [4g, 1-Phenylcyclopropane-1-carboxamide] | – | – | – | > 100000 | – |
| NNC(=O)C1CC1c1ccccc1 (centres unmarked) [4d, 2-phenylcyclopropane-1-carbohydrazide] | – | – | – | > 100000 | – |
| Cl.NC1CC1c1cccc(NC(=O)C(Cc2ccccc2)NC(=O)OCc2ccccc2)c1 (centres unmarked) [2b, Benzyl (1-((3-(2-aminocyclopropyl)phenyl)amino)-1-oxo-3-phenylpropan-2-yl)carbamate hydrochloride] | 18100 ± 2900 | 42.7 ± 5.8 | 24.2 ± 3.1 | – | fold decrease of anti-LSD1 potency relative to 2a [1]: > 120 fold |
| CN1CCN(c2cc(C(=O)Nc3ccc(C4CC4N)cc3)ccc2NC(=O)OCc2ccccc2)CC1 (centres unmarked) [3c, Benzyl 4-(4-(2-aminocyclopropyl)phenylcarbamoyl)-2-(4-methylpiperazin-1-yl)phenylcarbamate hydrochloride] | 89 ± 10 | 0.9 ± 0.06 | 2.5 ± 0.1 | – | inhibition at 100 µM [6]: 69%; inhibition at 100 µM [7]: 55% |
| NC1CC1c1ccc(NC(=O)C(Cc2ccccc2)NC(=O)OCc2ccccc2)cc1 (centres unmarked) [2a] | – | – | – | – | % inhibition at 100 μM MAO B [10]: 1% |
| NCC1(c2ccccc2)CC1 [4h, (1-phenylcyclopropyl)methanamine] | – | – | – | > 100000 | – |
| NC1CC1c1ccc(NC(=O)c2ccccc2NC(=O)OCc2ccccc2)cc1 (centres unmarked) [3j, Benzyl (2-((4-(2-aminocyclopropyl)phenyl)carbamoyl)phenyl)carbamate hydrochloride] | 146 ± 22 | 8.1 ± 0.9 | 8.2 ± 1.2 | – | inhibition at 100 µM [6]: 72%; inhibition at 100 µM [7]: 17% |
| N[C@@H]1C[C@H]1c1ccccc1 (racemic) [TCP, tranylcypromine, reference compound] | – | – | – | – | IC50 [4]: > 100 µM; IC50 [5]: > 100 µM; % inhibition at 100 μM MAO A [6]: 79% |
| NC1CC1c1ccc(NC(=O)c2cc(NC(=O)c3ccccc3)ccc2OCC(=O)Nc2ccccc2)cc1 (centres unmarked) [3m, N-(4-(2-aminocyclopropyl)phenyl)-5-benzamido-2-(2-oxo-2-(phenylamino)ethoxy)benzamide hydrochloride] | 3900 ± 200 | 5.5 ± 1.4 | 5.6 ± 1.1 | – | – |
| CN(C)C1CC1c1ccccc1 (centres unmarked) [4b, N,N-dimethyl-TCP] | – | – | – | 56200 ± 7800 | LSD1/CoREST potency relative to TCP (fold less effective) [1]: 5 fold |
| NN1CC1c1ccccc1 (centres unmarked) [4i, 2-phenylaziridin-1-amine] | – | – | – | > 100000 | – |
| NC(=O)C1CC1c1ccccc1 (centres unmarked) [4c, 2-Phenylcyclopropane-1-carboxamide] | – | – | – | > 100000 | – |
